Experimental data from patent US20260015365A1, “PRODRUGS OF SOMATOSTATIN RECEPTORS SUBTYPE 4 (SSTR4) AGONISTS AND THEIR APPLICATIONS” (Humanwell Pharmaceutical US, Inc., priority 2024, published 2026).

Test: Pharmacokinetics in SD rats after intravenous injection and single oral gavage, plasma LC-MS/MS
Type: in vivo
Details: male, rat
Protocol: SD rats (male, 6-8 weeks old, from JH Laboratory Animal Co., Ltd.) were used for intravenous injection and single oral gavage administration. Plasma samples were collected at 0.083, 0.25, 0.5, 1, 2, 4, 8, and 24 hours post-dose.
The plasma samples were obtained by centrifugation (2000 rpm, 4° C., 5 min). Samples were added to a 96-well plate and mixed with 10 volumes of acetonitrile containing an internal standard. After mixing and shaking, the mixture was centrifuged (5800 rpm, 4° C., 10 min), and the supernatant was transferred to a new 96-well plate.
The resulting solution was injected into the LC-MS/MS system. Drug concentrations in plasma were quantified using the LC-MS/MS method, and pharmacokinetic parameters were calculated accordingly.

Molecule CC(C)(NC(=O)[C@H]1[C@@H]2CNC[C@H]1C2)c1ncc2c(Br)cccn12 [compound 1] has an AUC(0-inf) (IV, 1 mg/kg) of 370 ng·h/mL, an AUC(0-t) (IV, 1 mg/kg) of 361 ng·h/mL and an MRT inf (IV, 1 mg/kg) of 0.879 h. For the same molecule, the clearance (IV, 1 mg/kg) was 45.2 mL/min/kg, the half-life (IV, 1 mg/kg) was 0.814 h and the Vd (IV, 1 mg/kg, read-out: Vss) was 2.38 L/kg. For the same molecule, the Cmax (PO, 3 mg/kg) was 36.3 ng/mL, the Tmax (PO, 3 mg/kg) was 1.42 h and the half-life (PO, 3 mg/kg) was 2.43 h.
